Like-named read-outs stand apart in the source and are kept apart here.
Legend:
[1] = molecular target: NR1/NR2B (Homo sapiens (Human), UniProt Q05586+Q13224); assay: Cell assay: FDSS Ca2+ influx inhibition in HEK293 cells expressing NR1/NR2B; conditions: Binned Activity;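 note: Fluo-8 Ca2+ signal read on Hamamatsu FDSS 6000 after glutamate, glycine and Ca2+ challenge following 10 min compound preincubation, end/baseline fluorescence ratio compared with MK801 control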
Procedure: (§1) Cell Culture and plating: HEK293 cells expressing NR1/NR2B (Chantest, Cleveland, Ohio) were grown to 70-80% confluency as an adherent monolayer in standard tissue culture flasks at 37° C., 5% CO2 per supplier's instructions. NR2B expression was induced by incubation with 0.3-0.4 μg/ml tetracycline in the presence of 4 mM ARL-15896 for 18-24 hours under the same growth conditions, then transferred to 30° C. for another 3-5 hours.
(§2) After induction, cell culture medium was removed and cells were rinsed once with Ca^2+ and Mg^2+-free Dulbecco's phosphate buffered saline. Cells were then removed from the flask using TrypLE™ Express (Life Technologies) according to the manufacturer's instructions and collected to 50 ml centrifuge tubes. Following two washes in Ca^2+/Mg^2+-free HBSS with 20 mM HEPES (HHnoCa), cells were counted and viability assessed using trypan blue. To load cells with Ca^2+-sensitive dye, they were resuspended in fluo-8 plus Component B (AAT Bioquest Products) diluted in HHnoCa and incubated 15 minutes at 37° C., followed by 30 minutes at room temp (in dark). Cells were then washed and resuspended in HHnoCa to remove extracellular dye and plated in 384-well plates (Falcon, uncoated) at 20,000-30,000 cells/well in a final volume of 25 μl/well.
(§3) FDSS Assay: To each well of the plate, 10 μL test compound, control (MK801) or HHnoCa buffer was added to a final concentration of 10 μM with a final concentration of DMSO of 0.1%. Following 10 minutes pre-incubation in the dark, plates are loaded onto the Hamamatsu FDSS 6000. After collecting baseline fluorescence images, 3 μM glutamate, 3 glycine, and 1 mM Ca^2+ in HHnoCa buffer is added to each well, and Ca^2+ is recorded for 3 minutes. Data were processed by computing ratio of fluorescence at the end of data collection to baseline fluorescence to assess degree of Ca′ influx inhibition relative to that observed in MK801.

[2] = molecular target: NR1/NR2B (Homo sapiens (Human), UniProt Q13224); assay: as above; conditions: read-out: NR2B NAM IC50
Sequence of NR1/NR2B (Homo sapiens (Human), UniProt Q13224) (Q13224 27-1484, other chains not shown): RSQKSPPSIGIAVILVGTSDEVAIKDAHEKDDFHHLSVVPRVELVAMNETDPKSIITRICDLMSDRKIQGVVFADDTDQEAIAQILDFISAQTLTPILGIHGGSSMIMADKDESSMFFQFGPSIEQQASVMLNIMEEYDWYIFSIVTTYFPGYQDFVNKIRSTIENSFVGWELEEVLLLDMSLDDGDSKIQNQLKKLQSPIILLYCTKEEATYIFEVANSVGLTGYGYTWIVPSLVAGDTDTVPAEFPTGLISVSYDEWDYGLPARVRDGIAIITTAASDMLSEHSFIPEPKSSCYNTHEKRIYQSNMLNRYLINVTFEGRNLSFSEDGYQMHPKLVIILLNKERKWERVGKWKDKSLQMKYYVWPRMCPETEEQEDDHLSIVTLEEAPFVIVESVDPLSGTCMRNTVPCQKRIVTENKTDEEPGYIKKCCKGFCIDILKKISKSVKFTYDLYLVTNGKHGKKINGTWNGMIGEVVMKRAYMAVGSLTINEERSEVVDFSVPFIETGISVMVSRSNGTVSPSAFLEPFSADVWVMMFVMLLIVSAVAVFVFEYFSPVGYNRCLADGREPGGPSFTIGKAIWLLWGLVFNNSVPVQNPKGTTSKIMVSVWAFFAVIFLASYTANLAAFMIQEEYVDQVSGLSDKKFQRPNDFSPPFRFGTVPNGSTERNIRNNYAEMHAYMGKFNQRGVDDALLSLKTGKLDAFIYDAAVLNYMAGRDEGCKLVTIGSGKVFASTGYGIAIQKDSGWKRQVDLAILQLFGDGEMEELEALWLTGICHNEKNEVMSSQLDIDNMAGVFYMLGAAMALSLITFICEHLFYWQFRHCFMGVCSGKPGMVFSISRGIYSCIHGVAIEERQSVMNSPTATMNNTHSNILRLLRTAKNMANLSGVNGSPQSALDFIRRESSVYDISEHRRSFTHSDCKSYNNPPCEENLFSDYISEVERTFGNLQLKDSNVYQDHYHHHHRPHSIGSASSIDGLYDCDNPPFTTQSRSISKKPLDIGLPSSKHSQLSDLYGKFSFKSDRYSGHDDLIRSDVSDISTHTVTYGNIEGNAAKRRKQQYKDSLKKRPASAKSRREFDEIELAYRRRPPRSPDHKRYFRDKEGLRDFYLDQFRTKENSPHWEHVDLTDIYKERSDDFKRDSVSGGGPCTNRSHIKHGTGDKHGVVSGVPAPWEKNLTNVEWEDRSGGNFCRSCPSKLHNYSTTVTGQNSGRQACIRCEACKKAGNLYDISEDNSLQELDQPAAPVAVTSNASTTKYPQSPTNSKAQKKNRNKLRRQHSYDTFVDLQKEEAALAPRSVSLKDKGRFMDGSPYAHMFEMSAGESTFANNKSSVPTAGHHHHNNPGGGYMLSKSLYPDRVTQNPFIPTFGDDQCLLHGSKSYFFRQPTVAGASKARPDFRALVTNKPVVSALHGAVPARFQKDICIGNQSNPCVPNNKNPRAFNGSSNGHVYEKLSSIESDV
Procedure: as §1, §2, §3

[3] = HEK293 cells expressing NR1/NR2B, Ca2+ influx, binned NR2B NAM IC50
[4] = HEK293 cells expressing NR1/NR2B, Ca2+ influx

Sequence of NR1/NR2B (Homo sapiens (Human), UniProt Q05586+Q13224) (Q13224 27-1484, other chains not shown): as above

SMILES: O=C(CN1C[C@@H]2C[C@@](O)(Cc3ccccc3)C[C@@H]2C1)c1cccc(-c2cccc(F)c2)c1 [Example 271, 2-((3aR,5r,6aS)-5-benzyl-5-hydroxyhexahydrocyclo-penta[c]pyrrol-2(1H)-yl)-1-(3′-fluoro-[1,1′-biphenyl]-3-yl)ethanone]
- IC50 [1, 3]: > 10 µM
- IC50 [2, 4]: 10 µM

SMILES: COc1cccc(-c2ccc(C(=O)CN3C[C@@H]4C[C@@](O)(Cc5ccccc5)C[C@@H]4C3)cc2)c1 [Example 265, 2-((3aR,5r,6aS)-5-benzyl-5-hydroxyhexahydrocyclo-penta[c]pyrrol-2(1H)-yl)-1-(3′-methoxy-[1,1′-biphenyl]-4-yl)ethanone]
- IC50 [1, 3]: > 10 µM
- IC50 [2, 4]: 10 µM

SMILES: O=C(CN1C[C@@H]2C[C@@](O)(Cc3ccccc3F)C[C@@H]2C1)c1ccc(O)cn1 [Example 221, 2-(5-(2-fluorobenzyl)-5-hydroxyhexahydrocyclo-penta[c]pyrrol-2(1H)-yl)-1-(5-hydroxypyridin-2-yl)ethanone]
- IC50 [1, 3]: 0.1 to 1 µM
- IC50 [2, 4]: 0.998 µM

SMILES: O=C(CN1C[C@@H]2C[C@@](O)(Cc3ccccc3)C[C@@H]2C1)c1cc(F)c(O)c(F)c1 [Example 159, 2-((3aR,5r,6aS)-5-benzyl-5-hydroxyhexahydrocyclo-penta[c]pyrrol-2(1H)-yl)-1-(3,5-difluoro-4-hydroxyphenyl)ethanone]
- IC50 [1, 3]: > 10 µM
- IC50 [2, 4]: 11.6 µM

SMILES: O=C(CN1C[C@@H]2C[C@](F)(Cc3ccccc3)C[C@@H]2C1)c1ccc(O)cc1 [Example 310, 2-((3aR,5s,6aS)-5-benzyl-5-fluorohexahydrocyclo-penta[c]pyrrol-2(1H)-yl)-1-(4-hydroxyphenyl)ethanone]
- IC50 [1, 3]: 0.1 to 1 µM
- IC50 [2, 4]: 0.175 µM

SMILES: Oc1ccc(C(O)CCN2C[C@@H]3C[C@@](O)(c4ccccc4)C[C@@H]3C2)cc1 (stereo partly shown) [Example 98, 2-(3-hydroxy-3-(4-hydroxyphenyl)propyl)-5-phenyloctahydrocyclopen-ta[c]pyrrol-5-ol]
- IC50 [1, 3]: > 10 µM
- IC50 [2, 4]: 10 µM

SMILES: O=C(CN1C[C@@H]2C[C@@](O)(Cc3ccccc3)C[C@@H]2C1)c1ccc(O)c(F)c1 [Example 151, 2-((3aR,5r,6aS)-5-benzyl-5-hydroxyhexahydrocyclo-penta[c]pyrrol-2(1H)-yl)-1-(3-fluoro-4-hydroxyphenyl)ethanone]
- IC50 [1, 3]: 0.1 to 1 µM
- IC50 [2, 4]: 0.372 µM

SMILES: O=C(CN1C[C@@H]2CC(O)(CCc3ccccc3)C[C@@H]2C1)c1ccc(-c2cccc(F)c2)cc1 (stereo partly shown) [Example 270, 1-[4-(3-fluorophenyl)phenyl]-2-[5-hydroxy-5-(2-phenylethyl)-octahydrocyclopenta[c]pyrrol-2-yl]ethan-1-one]
- IC50 [1, 3]: > 10 µM
- IC50 [2, 4]: 10 µM

SMILES: O=C(COc1ccc(C(=O)CN2C[C@@H]3C[C@@](O)(Cc4ccccc4)C[C@@H]3C2)cc1F)c1ccc(O)c(F)c1 [Example 172, 2-((3aR,5r,6aS)-5-benzyl-5-hydroxyhexahydrocyclo-penta[c]pyrrol-2(1H)-yl)-1-(3-fluoro-4-(2-(3-fluoro-4-hydroxyphenyl)-2-oxoethoxy)phenyl)ethanone]
- IC50 [1, 3]: > 10 µM
- IC50 [2, 4]: 10 µM

SMILES: O=C(CN1C[C@@H]2C[C@@](O)(Cc3ccccc3)C[C@@H]2C1)c1ccc(-c2cccnc2)cc1 [Example 267, 2-((3aR,5r,6aS)-5-benzyl-5-hydroxyhexahydrocyclo-penta[c]pyrrol-2(1H)-yl)-1-(4-(pyridin-3-yl)phenyl)ethanone]
- IC50 [1, 3]: > 10 µM
- IC50 [2, 4]: 10 µM

SMILES: Oc1ccc(C(O)CN2C[C@H]3C[C@@H](c4ccccc4)C[C@H]3C2)cc1 (stereo partly shown) [Example 115, 4-(1-hydroxy-2-(5-phenylhexahydrocyclo-penta[c]pyrrol-2(1H)-yl)ethyl)phenol]
- IC50 [1, 3]: > 10 µM
- IC50 [2, 4]: 10 µM

SMILES: COC(=O)c1ccc(NC(=O)N2C[C@H]3C[C@@H](c4ccccc4)C[C@H]3C2)cc1 [Example 103, methyl 4-[({5-phenyl-octahydrocyclopenta[c]pyrrol-2-yl}carbonyl)amino]benzo-ate]
- IC50 [1, 3]: > 10 µM
- IC50 [2, 4]: 10 µM

SMILES: CC(C)(C)c1ccc([C@]2(O)C[C@H]3CN(C(=O)Nc4cccc(C(F)(F)F)c4)C[C@H]3C2)cc1 [Example 55, 5-(4-tert-butylphenyl)-5-hydroxy-N-[3-(trifluoromethyl)phenyl]-octahydrocyclopenta[c] pyrrole-2-carboxamide]
- IC50 [1, 3]: > 10 µM
- IC50 [2, 4]: 10 µM

SMILES: Cc1ccccc1[C@]1(O)C[C@H]2CN(C(=O)Nc3ccc(Cl)c(C(F)(F)F)c3)C[C@H]2C1 [Example 24, N-[4-chloro-3-(trifluoromethyl)phenyl]-5-hydroxy-5-(2-methylphenyl)-octahydrocyclopenta[c] pyrrole-2-carboxamide]
- IC50 [1, 3]: > 10 µM
- IC50 [2, 4]: 10 µM

SMILES: Cc1ccccc1[C@]1(O)C[C@H]2CN(c3ccccn3)C[C@H]2C1 [Example 82, 5-(2-methylphenyl)-2-(pyridin-2-yl)-octahydrocyclopenta[c] pyrrol-5-ol]
- IC50 [1, 3]: > 10 µM
- IC50 [2, 4]: 10 µM

SMILES: Cc1cccc(N2C[C@@H]3C[C@@](O)(c4ccc(C(C)(C)C)cc4)C[C@@H]3C2)n1 [Example 89, 5-(4-tert-butylphenyl)-2-(6-methylpyridin-2-yl)-octahydrocyclopenta[c] pyrrol-5-ol]
- IC50 [1, 3]: > 10 µM
- IC50 [2, 4]: 10 µM

SMILES: O=C(CN1C[C@H]2C[C@@H](c3ccccc3)C[C@H]2C1)c1ccc(O)cc1 [Example 114, 1-(4-hydroxyphenyl)-2-(5-phenylhexahydrocyclo-penta[c]pyrrol-2(1H)-yl)ethanone]
- IC50 [1, 3]: 0.1 to 1 µM
- IC50 [2, 4]: 0.232 µM

SMILES: CC(=O)Nc1ccc(C(=O)CN2C[C@@H]3C[C@@](O)(Cc4ccccc4)C[C@@H]3C2)cn1 [Example 282, N-(5-(2-((3aR,5r,6aS)-5-benzyl-5-hydroxyhexahydrocyclo-penta[c]pyrrol-2(1H)-yl)acetyl)pyridin-2-yl)acetamide]
- IC50 [1, 3]: > 10 µM
- IC50 [2, 4]: 10 µM

SMILES: Oc1ccc([C@@H](O)CN2C[C@@H]3C[C@@](O)(Cc4ccccc4)C[C@@H]3C2)cc1 [Example 136, (3aR,5R,6aS)-5-benzyl-2-((R)-2-hydroxy-2-(4-hydroxyphenyl)ethyl)octa-hydrocyclopenta[c]pyrrol-5-ol]
- IC50 [1, 3]: < 0.1 µM
- IC50 [2, 4]: 0.0237 µM

SMILES: O=C(COc1ccc(C(=O)CN2C[C@@H]3C[C@@](O)(Cc4ccc(F)cc4)C[C@@H]3C2)cc1F)c1ccc(O)c(F)c1 [Example 173, 2-(2-fluoro-4-(2-((3aR,5r,6aS)-5-(4-fluorobenzyl)-5-hydroxyhexahydrocyclo-penta[c]pyrrol-2(1H)-yl)acetyl)phenoxy)-1-(3-fluoro-4-hydroxyphenyl)ethanone]
- IC50 [1, 3]: > 10 µM
- IC50 [2, 4]: 10 µM

SMILES: COc1ccc(C)cc1NC(=O)N1C[C@@H]2C[C@@](O)(c3ccccc3C)C[C@@H]2C1 [Example 23, 5-hydroxy-N-(2-methoxy-5-methylphenyl)-5-(2-methylphenyl)-octahydrocyclopenta[c] pyrrole-2-carboxamide]
- IC50 [1, 3]: > 10 µM
- IC50 [2, 4]: 10 µM

SMILES: Oc1ccc([C@H](O)CN2C[C@@H]3C[C@](F)(Cc4ccccc4)C[C@@H]3C2)cc1 [Example 315, 4-((S)-2-((3aR,5R,6aS)-5-benzyl-5-fluoro-hexahydrocyclopen-ta[c]pyrrol-2(1H)-yl)-1-hydroxyethyl)phenol]
- IC50 [1, 3]: 0.1 to 1 µM
- IC50 [2, 4]: 0.324 µM

SMILES: O=C(Nc1cccc(Cl)c1)N1C[C@@H]2C[C@@](O)(c3ccccc3)C[C@@H]2C1 [Example 4, N-(3-chlorophenyl)-5-hydroxy-5-phenyl-octahydrocyclopenta[c] pyrrole-2-carboxamide]
- IC50 [1, 3]: > 10 µM
- IC50 [2, 4]: 10 µM

SMILES: O=C(CN1C[C@@H]2C[C@@](O)(Cc3ccccc3)C[C@@H]2C1)c1ccc(-c2ccc(O)cc2)cc1 [Example 257, 2-((3aR,5r,6aS)-5-benzyl-5-hydroxyhexahydrocyclo-penta[c]pyrrol-2(1H)-yl)-1-(4′-hydroxy-[1,1′-biphenyl]-4-yl)ethanone]
- IC50 [1, 3]: > 10 µM
- IC50 [2, 4]: 10 µM

SMILES: O=C(CN1C[C@@H]2C[C@@](O)(Cc3ccncc3)C[C@@H]2C1)c1ccc(O)cc1 [Example 226, 2-((3aR,5r,6aS)-5-hydroxy-5-(pyridin-4-ylmethyl)hexahydrocyclo-penta[c]pyrrol-2(1H)-yl)-1-(4-hydroxyphenyl)ethanone]
- IC50 [1, 3]: 1 to 10 µM
- IC50 [2, 4]: 3.89 µM

SMILES: O=C(CN1C[C@@H]2C[C@@](O)(Cc3ccc(Cl)cc3)C[C@@H]2C1)c1ccc(O)cn1 [Example 218, 2-((3aR,5r,6aS)-5-(4-chlorobenzyl)-5-hydroxyhexaydrocyclo-penta[c]pyrrol-2(1H)-yl)-1-(5-hydroxypyridin-2-yl)ethanone]
- IC50 [1, 3]: 0.1 to 1 µM
- IC50 [2, 4]: 0.374 µM

SMILES: O=C(Nc1ccccc1)N1C[C@H]2C[C@@H](c3ccccc3)C[C@H]2C1 [Example 102, N,5-diphenyl-octahydrocyclopenta[c] pyrrole-2-carboxamide]
- IC50 [1, 3]: > 10 µM
- IC50 [2, 4]: 10 µM

SMILES: COc1ccc(C[C@]2(O)C[C@H]3CN(CC(=O)c4ccc(O)cn4)C[C@H]3C2)cc1 [Example 192, 2-[(3aR,5R,6aS)-5-hydroxy-5-[(4-methoxyphenyl)methyl]-octahydrocyclopenta[c]pyrrol-2-yl]-1-(5-hydroxypyridin-2-yl)ethan-1-one]
- IC50 [1, 3]: 1 to 10 µM
- IC50 [2, 4]: 7.61 µM

SMILES: Cc1ccccc1[C@]1(O)C[C@H]2CN(C(=O)Nc3ccccc3)C[C@H]2C1 [Example 30, 5-hydroxy-5-(2-methylphenyl)-N-phenyl-octahydrocyclopenta[c] pyrrole-2-carboxamide]
- IC50 [1]: > 10 µM
- IC50 [2]: 10 µM
